Data as given in patent US6875759B1, “Substituted guanidines and the use thereof” (Kadmus Pharmaceuticals, priority 1999, dated 2005).

Columns and labels:
[1] = test system: HS578T breast cancer cells; assay: DNA fragmentation, TUNEL assay by flow cytometry; assay type: cell-based, human; settings: 12.5 or 25 μM for 24 hours
Protocol: FIGS. 4A-4C illustrate the effects of compound of Example 8 on HS578-T breast carcinoma cells. Cells were exposed to the compound at zero μM (FIG. 4A), 12.5 μM (FIG. 4B) or 25 μM (FIG. 4C) for 24 hours, and the degree of DNA fragmentation measured by flow cytometry using the TUNEL assay.
The TUNEL assay examines DNA fragmentation using flow cytometry to detect DNA that is labeled with fluorescein dUTP compared to the total nuclear DNA content of the cell as measured using propidium iodide. Human HS578T breast cancer cells were treated with either 12.5 or 25 μM of the compound of Example 8 for 24 hours. As cells undergo apoptosis, DNA fragmentation occurs in a relatively intact nucleus, giving rise to a higher fluorescent intensity (x-axis) with stable staining by propidium iodide (y-axis).

[2] = Mouse formalin test pain model, late phase; assay type: in vivo
Protocol: The formalin test was conducted using standard procedures (Hunskaar et al., J. Neurosci. Meth. 14:69-76 (1985). Mice (male CF-1, 20-25 g) were placed in Plexiglass jars for at least 1 hr to accommodate to the environment
The animals received either test drug at 5-50 mg/kg p.o. or the appropriate volume of vehicle (normal saline). Thirty minutes after p.o. dosing mice were injected with formalin (20 μl of 2.5% formaldehyde solution in saline) into the dorsal surface of the right hind paw.
All experiments were done in a blinded manner. The late phase of the formalin response was measured as licking/biting from 10-50 minutes after formalin injection. Differences between groups were analyzed by one-way analysis of variance (ANOVA), A P value ≦0.05 was considered significant. Reduction in the time spent licking/biting in the late phase of the formalin response is considered an indication of a reduction in chronic pain.

Cc1ccc(N=C(Nc2ccc(C)cc2)N2CCN(C/C=C/c3ccccc3)CC2)cc1 [Example 8, 1-[(N,N′-Di-p-tolyl)amidino]-(trans-1′-cinnamyl)piperizine]
DNA fragmentation (TUNEL) [1]: pattern of DNA fragmentation characteristic of apoptosis
late phase pain versus control vehicle (post-hoc Newman-Kuels test) ([2]; 30 mg/kg orally): different from control vehicle at P<0.05
late phase pain versus control vehicle (post-hoc Newman-Kuels test) ([2]; 50 mg/kg orally): different from control vehicle at P<0.05
effect on general behavior of the animals ([2]; at the doses effective in the formalin test, p.o.): did not affect the general behavior
time spent licking, late phase of formalin response (in words) ([2]; oral administration, 5-50 mg/kg, male CF-1 mice): dose-dependent reduction in the time spent licking
